The target in experiment [1] is T1, Eukaryotic translation initiation factor 2-alpha kinase 3 (Homo sapiens, UniProt Q9NZJ5).
T1 sequence (Q9NZJ5 whole entry): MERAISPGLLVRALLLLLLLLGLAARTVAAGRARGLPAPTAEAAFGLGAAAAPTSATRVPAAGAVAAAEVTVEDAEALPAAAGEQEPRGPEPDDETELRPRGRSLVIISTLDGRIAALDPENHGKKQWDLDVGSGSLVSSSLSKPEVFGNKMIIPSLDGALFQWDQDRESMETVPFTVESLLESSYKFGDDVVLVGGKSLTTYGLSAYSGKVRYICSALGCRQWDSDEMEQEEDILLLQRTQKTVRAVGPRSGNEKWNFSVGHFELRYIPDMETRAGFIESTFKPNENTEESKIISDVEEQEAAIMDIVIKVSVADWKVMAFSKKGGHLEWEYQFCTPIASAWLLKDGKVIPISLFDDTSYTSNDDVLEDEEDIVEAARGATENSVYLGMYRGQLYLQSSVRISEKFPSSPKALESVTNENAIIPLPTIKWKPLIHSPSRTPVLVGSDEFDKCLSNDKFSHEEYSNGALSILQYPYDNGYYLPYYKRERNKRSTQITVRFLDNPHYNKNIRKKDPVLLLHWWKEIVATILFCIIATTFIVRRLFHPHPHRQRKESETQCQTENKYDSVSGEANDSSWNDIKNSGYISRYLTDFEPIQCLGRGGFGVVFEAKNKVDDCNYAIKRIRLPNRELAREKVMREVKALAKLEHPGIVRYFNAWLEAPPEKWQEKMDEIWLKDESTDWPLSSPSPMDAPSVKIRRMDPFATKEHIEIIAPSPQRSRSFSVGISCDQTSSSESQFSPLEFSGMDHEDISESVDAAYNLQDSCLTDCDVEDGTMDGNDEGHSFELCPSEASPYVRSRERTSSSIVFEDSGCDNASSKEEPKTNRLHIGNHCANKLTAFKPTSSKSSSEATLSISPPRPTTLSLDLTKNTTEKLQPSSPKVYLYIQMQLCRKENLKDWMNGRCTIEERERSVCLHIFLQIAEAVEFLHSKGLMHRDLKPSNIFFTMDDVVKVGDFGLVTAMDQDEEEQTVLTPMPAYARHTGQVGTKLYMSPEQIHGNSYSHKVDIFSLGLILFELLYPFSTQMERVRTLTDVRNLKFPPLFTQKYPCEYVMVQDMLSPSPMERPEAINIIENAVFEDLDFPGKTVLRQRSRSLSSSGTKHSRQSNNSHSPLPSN
Description: Counterscreen assay for PERK inhibitors: Dose response cell-based high throughput screening assay to measure inhibition of PERK at 6 hours. [Related pubchem assays: 1522, 1416 ]. The class given is functional. Background: The purpose of a counterscreen is to sort out artefacts and off-target activity.

Experiment [2] deals with T1, Eukaryotic translation initiation factor 2-alpha kinase 3. In words: Dose response cell-based high-throughput screening assay to measure PERK inhibition. [Related pubchem assays: 1416 ]. The class given is functional.
Experiment [3] is described as follows: Luminescence Cell-Based Dose Response HTS to Identify Activators of Luciferase Translation or Activity in H4 […] Cells. [Related pubchem assays: 1829 (Project Summary), 1814 (Primary HTS)]. The class given is functional.
Experiment [4] has as its system HeLa. Description: ATP-based viability loss in HeLa cells – cell-based, CellTiter-Glo luminescence, cherry-pick samples, cytotoxicity control for MITF activator project, dose response (AID 540259). Type of experiment: functional. The conditions noted are these: Homo sapiens. A general note: ATP-based viability assays read luminescence as a measure of living cells.

A short description of experiment [5]: Luminescence Cell-Based Dose Response to Identify Activators of Luciferase Translation or Activity in H4-C Neuroglioblastoma Cells. [Related pubchem assays: 1829 (Project Summary), 1814 (Primary HTS)]. Type of experiment: functional.
A short description of experiment [6]: Luminescence Cell-Based Dose Response to Identify Activators of 5'UTR Stem-Loop Driven Prion Protein mRNA Translation in H4-C Neuroglioblastoma Cells. [Related pubchem assays: 1829 (Project Summary), 1814 (Primary HTS)]. Type of experiment: functional.
Experiment [7] is described as follows: Luminescence Cell-Based Dose Confirmation to Identify Activators of 5'UTR Stem-Loop Driven Alpha-Synuclein mRNA Translation in H4 Neuroglioblastoma Cells. [Related pubchem assays: 1829 (Project Summary), 1814 (Primary HTS)]. Type of experiment: functional.
Experiment [8] deals with H4. In words: Luminescence Cell-Based Dose Response HTS to Identify Activators of 5'UTR Stem-Loop Driven Prion Protein mRNA Translation in H4 Neuroglioblastoma Cells. [Related pubchem assays: 1829 (Project Summary), 1814 (Primary HTS)]. The class given is functional. To be noted: Homo sapiens.
Experiment [9] is described as follows: Luminescence Cell-Based Dose Confirmation HTS to Identify Activators of 5'UTR Stem-Loop Driven Alpha-Synuclein mRNA Translation in H4 Neuroglioblastoma Cells. [Related pubchem assays: 1829 (Project Summary), 1814 (Primary HTS)]. Type of experiment: functional.
For experiment [10], the target named is Peroxisome proliferator-activated receptor gamma/Nuclear receptor coactivator 3 (Homo sapiens, UniProt P37231). The class given is functional.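 Also: agonist potency for raising coactivator recruitment to the receptor.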
Chain of Peroxisome proliferator-activated receptor gamma/Nuclear receptor coactivator 3 (P37231 whole entry): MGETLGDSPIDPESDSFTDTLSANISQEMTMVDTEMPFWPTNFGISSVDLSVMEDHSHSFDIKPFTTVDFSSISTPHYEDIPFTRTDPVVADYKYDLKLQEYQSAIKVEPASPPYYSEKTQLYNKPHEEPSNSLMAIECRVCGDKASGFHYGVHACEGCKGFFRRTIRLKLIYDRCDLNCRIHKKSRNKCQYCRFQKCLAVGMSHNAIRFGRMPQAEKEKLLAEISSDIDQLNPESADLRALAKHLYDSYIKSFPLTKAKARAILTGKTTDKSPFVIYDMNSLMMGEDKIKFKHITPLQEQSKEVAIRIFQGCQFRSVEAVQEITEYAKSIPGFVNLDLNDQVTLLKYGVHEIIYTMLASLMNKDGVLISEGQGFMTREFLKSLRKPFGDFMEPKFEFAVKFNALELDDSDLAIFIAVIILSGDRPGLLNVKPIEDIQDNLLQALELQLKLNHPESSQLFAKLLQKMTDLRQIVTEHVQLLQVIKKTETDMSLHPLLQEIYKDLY
Chain of Peroxisome proliferator-activated receptor gamma/Nuclear receptor coactivator 3 (Q9Y6Q9 whole entry, further chain): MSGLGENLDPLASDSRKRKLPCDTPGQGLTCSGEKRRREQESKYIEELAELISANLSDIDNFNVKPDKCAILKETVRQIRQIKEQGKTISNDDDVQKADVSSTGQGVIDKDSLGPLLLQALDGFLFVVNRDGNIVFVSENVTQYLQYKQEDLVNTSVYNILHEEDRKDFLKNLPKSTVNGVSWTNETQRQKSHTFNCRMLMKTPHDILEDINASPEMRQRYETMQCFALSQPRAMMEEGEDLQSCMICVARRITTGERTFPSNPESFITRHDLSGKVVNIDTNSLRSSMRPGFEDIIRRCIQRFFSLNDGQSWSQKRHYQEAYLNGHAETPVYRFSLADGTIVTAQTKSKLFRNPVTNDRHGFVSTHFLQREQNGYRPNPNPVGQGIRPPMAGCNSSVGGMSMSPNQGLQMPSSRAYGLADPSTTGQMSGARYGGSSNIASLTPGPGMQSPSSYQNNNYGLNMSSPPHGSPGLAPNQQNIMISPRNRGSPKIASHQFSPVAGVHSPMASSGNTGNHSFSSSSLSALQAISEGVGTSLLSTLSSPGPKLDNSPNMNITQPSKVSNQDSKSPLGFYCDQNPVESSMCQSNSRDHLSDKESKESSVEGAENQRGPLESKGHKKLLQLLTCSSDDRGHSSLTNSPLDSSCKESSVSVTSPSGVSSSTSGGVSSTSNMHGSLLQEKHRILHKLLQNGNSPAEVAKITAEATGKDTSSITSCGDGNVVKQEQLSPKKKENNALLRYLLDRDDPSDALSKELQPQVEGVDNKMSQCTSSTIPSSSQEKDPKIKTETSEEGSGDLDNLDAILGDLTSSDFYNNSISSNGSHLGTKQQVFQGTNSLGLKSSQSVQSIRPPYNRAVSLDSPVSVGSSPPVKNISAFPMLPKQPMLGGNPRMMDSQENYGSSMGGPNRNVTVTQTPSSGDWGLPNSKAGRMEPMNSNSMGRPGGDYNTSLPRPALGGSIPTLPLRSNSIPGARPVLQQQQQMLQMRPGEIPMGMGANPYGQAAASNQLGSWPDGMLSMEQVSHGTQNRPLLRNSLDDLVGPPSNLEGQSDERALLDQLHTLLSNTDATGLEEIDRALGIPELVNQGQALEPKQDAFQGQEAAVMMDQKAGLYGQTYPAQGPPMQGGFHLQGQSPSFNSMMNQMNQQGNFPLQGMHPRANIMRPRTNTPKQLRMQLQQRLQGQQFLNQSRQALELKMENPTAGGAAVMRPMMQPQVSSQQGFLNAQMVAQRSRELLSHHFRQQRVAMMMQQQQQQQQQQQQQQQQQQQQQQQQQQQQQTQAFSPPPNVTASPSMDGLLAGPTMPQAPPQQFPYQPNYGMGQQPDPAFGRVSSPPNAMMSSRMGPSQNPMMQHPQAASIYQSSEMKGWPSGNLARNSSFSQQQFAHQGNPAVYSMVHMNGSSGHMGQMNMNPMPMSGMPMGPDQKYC
Experiment [11] deals with Peroxisome proliferator-activated receptor gamma/Nuclear receptor coactivator 1 (Homo sapiens, UniProt P37231). The class given is functional.
Chain of Peroxisome proliferator-activated receptor gamma/Nuclear receptor coactivator 1 (P37231 whole entry): as the sequence (P37231 whole entry) above
Chain of Peroxisome proliferator-activated receptor gamma/Nuclear receptor coactivator 1 (Q15788 whole entry, further chain): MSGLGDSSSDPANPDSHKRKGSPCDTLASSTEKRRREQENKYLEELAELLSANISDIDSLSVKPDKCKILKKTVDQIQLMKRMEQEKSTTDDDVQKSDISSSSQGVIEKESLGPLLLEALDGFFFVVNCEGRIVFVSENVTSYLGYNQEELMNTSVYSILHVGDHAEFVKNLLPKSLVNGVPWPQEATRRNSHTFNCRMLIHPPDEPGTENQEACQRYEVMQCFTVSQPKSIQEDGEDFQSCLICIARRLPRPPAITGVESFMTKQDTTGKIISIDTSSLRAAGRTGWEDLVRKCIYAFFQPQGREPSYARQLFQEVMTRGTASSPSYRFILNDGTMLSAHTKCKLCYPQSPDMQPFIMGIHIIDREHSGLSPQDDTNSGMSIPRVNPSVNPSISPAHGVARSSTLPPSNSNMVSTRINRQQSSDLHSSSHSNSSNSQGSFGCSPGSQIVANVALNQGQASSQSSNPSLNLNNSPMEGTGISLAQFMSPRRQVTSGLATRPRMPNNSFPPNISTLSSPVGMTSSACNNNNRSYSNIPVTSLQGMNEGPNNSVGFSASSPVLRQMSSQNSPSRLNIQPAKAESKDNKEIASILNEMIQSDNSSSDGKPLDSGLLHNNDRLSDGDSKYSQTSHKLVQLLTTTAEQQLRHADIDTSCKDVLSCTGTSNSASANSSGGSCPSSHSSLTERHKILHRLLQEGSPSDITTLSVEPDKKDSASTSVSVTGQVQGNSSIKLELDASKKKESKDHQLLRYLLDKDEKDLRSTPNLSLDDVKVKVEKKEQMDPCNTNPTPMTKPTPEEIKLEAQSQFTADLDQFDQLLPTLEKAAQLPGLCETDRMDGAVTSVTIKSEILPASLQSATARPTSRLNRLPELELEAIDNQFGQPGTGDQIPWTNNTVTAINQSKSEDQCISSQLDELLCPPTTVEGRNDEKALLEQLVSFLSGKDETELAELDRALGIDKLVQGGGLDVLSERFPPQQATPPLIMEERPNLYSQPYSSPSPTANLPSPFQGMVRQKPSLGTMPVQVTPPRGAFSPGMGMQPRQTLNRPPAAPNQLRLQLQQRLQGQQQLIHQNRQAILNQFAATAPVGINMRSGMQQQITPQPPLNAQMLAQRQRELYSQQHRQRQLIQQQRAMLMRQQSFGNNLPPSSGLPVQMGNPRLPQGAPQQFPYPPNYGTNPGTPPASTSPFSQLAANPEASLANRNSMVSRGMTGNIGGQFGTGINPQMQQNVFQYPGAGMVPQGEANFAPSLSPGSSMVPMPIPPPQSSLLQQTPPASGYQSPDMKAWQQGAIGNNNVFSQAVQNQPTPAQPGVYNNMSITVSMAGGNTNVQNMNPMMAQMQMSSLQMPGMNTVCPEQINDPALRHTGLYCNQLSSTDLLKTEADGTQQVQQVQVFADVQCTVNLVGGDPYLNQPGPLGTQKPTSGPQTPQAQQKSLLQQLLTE
For experiment [12], the target named is Peroxisome proliferator-activated receptor gamma/Nuclear receptor coactivator 2 (Homo sapiens, UniProt P37231). Type of experiment: functional.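 Also: agonist potency for raising coactivator recruitment to the receptor.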
Experiment [13] concerns the target Albumin (Bos taurus, UniProt P02769). In words: Counterscreen for inhibitors of T-cell receptor (TCR)-CD3 interaction: Fluorescence-based biochemical high throughput dose response assay to identify inhibitors of T-cell receptor (TCR)-CD3 interaction using a TAMRA-labeled BSA probe. Type of experiment: functional.
A short description of experiment [14]: viability loss of HPDE-C7K cells – cell-based, fluorescence, HTS, primary screen (AID 431). The class given is functional. To be noted: Homo sapiens.
A short description of experiment [15]: HPDE-C7 pancreatic duct cell viability loss – fluorescence, HTS (AID 430). Type of experiment: functional, cell-based. To be noted: Homo sapiens.
Experiment [16] deals with T2, COUP transcription factor 2 (Homo sapiens, UniProt P24468).
T2 sequence (P24468 whole entry): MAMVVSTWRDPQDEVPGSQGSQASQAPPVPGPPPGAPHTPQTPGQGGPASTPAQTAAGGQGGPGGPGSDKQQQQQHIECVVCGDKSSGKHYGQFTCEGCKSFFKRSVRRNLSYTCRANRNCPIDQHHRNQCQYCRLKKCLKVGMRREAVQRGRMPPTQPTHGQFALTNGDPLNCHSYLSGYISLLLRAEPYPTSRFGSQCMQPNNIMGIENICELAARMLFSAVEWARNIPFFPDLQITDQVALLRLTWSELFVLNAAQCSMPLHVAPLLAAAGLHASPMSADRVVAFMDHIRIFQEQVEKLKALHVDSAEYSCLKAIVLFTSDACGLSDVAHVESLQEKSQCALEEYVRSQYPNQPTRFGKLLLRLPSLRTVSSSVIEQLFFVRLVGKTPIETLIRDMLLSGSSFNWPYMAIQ
Description: Luminescence-based cell-based high throughput dose response assay to identify inhibitors of COUP-TFII (NR2F2). The class given is functional.

Experiment [17] is described as follows: Trypanosoma cruzi growth suppression in host cells – NIH3T3 host cells, beta-gal luminescence, confirmation (AID 2044).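 Also: intracellular parasites grown in NIH/3T3 mouse fibroblasts as host cells; luminescent beta-galactosidase reporter signal from transgenic T. cruzi replicating inside host cells; inhibitors lower the luminescence signal.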 Type of experiment: functional, cell-based.
The nature of experiment [18]: NIH3T3 cell viability loss – ATP luminescence, mouse fibroblasts, counter-screen, dose response (AID 2010).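 Also: cells exposed to compound for about 90 hours before reading.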 Type of experiment: functional, cell-based.
A short description of experiment [19]: fluconazole-exposed Candida albicans growth modulators – fluorescence, retest, confirmation (AID 2467). Type of experiment: functional, cell-based.
Experiment [20] addresses T3, DNA repair protein RAD52 homolog (Homo sapiens, UniProt P43351).
T3 sequence (P43351 whole entry): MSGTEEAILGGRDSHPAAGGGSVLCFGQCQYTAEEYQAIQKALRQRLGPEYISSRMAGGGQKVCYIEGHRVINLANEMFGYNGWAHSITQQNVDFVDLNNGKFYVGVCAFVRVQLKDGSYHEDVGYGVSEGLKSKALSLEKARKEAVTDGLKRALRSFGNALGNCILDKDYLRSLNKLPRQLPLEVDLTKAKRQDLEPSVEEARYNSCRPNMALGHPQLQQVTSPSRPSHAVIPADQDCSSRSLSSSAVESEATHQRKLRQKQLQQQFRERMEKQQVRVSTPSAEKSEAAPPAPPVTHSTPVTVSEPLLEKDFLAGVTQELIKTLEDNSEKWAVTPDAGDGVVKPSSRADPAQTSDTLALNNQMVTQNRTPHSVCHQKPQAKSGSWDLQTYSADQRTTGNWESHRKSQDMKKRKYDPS
The class given is functional, biochemical.

Experiment [21] in a line: NIH-3T3 fibroblast cytotoxicity, dose response, cytotoxicity control, cell-based, fluorescence, Alamar Blue, secondary assay (AID 2327).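 Also: NIH-3T3 mouse fibroblasts cultured with fluconazole at 8 µg/mL.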 Type of experiment: functional. In general terms: The colour change of resazurin is a common sign of viable cells or microbes.
Experiment [22] can be described thus: cells.
Experiment [23] has as its target T4, RNA-binding protein pos-1 (Caenorhabditis elegans, UniProt G5EF15).
T4 sequence (G5EF15 whole entry): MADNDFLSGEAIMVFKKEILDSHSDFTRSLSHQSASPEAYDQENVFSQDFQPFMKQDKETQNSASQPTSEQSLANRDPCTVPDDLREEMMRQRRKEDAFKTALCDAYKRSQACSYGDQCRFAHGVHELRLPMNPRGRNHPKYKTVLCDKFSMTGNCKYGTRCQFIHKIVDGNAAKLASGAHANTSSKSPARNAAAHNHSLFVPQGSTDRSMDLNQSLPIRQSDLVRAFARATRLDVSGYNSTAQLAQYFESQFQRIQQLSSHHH
In words: disruptors of C. elegans POS-1 RNA interaction – biochemical, fluorescence polarization, dose response (AID 1964).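 Also: purified POS-1 fused to maltose binding protein made in E. coli; potency of compounds blocking POS-1 binding to fluorescent RNA.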

Experiment [24] has as its target T5, Zinc finger protein mex-5 (Caenorhabditis elegans, UniProt Q9XUB2).
T5 sequence (Q9XUB2 whole entry): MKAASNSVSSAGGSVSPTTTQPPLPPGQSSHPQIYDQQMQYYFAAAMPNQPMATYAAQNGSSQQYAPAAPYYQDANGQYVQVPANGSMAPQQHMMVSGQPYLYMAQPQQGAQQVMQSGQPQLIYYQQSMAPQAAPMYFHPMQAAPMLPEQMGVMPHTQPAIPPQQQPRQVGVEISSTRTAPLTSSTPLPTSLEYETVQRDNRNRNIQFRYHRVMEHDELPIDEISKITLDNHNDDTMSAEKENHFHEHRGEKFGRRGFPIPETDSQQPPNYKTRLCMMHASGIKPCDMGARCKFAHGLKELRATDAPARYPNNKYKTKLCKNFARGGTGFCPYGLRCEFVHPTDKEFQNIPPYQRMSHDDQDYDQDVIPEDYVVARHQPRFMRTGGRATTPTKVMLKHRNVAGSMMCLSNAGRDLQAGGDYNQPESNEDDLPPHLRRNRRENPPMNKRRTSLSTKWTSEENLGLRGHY
Description: potency of MEX-5 RNA-binding blockers – biochemical, C. elegans, fluorescence polarization, dose response (AID 1960).

The target of experiment [25] is NAD-dependent protein deacylase sirtuin-5, mitochondrial (Homo sapiens, UniProt Q9NXA8). Description: sirtuin-5 deacylation blockers, concentration series – biochemical, fluorescence imaging, cherry-pick, set 5, dose response (AID 720591).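 Also: desuccinylation of succinyl peptide AMC substrate read as fluorescence after trypsin release; potency of inhibitors that lower fluorescence and may act on trypsin instead.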
Chain of NAD-dependent protein deacylase sirtuin-5, mitochondrial (Q9NXA8 whole entry): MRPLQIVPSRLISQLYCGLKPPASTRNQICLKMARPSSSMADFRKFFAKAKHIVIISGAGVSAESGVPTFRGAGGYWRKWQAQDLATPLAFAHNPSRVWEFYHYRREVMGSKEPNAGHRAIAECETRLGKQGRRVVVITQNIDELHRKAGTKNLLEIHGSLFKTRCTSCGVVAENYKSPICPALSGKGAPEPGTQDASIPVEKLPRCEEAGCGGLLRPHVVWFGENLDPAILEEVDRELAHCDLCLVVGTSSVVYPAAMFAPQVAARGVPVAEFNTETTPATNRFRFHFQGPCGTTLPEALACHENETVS

Each structure is given as a SMILES string. Activity calls are given as the source filed them. Rule as the data show it, for most assays here: actives have a measured EC50 and inactives only a lower limit.

Chain of Albumin (P02769 whole entry): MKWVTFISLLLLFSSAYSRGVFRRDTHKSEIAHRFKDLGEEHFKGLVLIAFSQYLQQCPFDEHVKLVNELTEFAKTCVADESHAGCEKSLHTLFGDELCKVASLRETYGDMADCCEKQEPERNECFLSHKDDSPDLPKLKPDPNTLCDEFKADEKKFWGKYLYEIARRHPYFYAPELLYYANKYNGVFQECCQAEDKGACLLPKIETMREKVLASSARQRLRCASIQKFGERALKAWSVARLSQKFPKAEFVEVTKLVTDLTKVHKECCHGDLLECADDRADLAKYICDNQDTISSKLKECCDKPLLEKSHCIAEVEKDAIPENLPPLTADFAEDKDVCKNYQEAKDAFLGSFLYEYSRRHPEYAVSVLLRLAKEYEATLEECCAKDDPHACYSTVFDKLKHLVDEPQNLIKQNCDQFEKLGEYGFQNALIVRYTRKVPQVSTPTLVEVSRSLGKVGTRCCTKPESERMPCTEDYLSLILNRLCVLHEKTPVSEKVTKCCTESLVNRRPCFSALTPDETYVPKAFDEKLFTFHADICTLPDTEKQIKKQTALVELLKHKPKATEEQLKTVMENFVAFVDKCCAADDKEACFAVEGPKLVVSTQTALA

As usually defined, the EC50 is the concentration needed to bring the measured effect to its halfway point. As to `COc1ccc(C(=O)Cc2ccccc2)cc1OC`, the EC50 in [1] and in experiment [2] was > 55.7 µM (not active) in each case.

The AC50 is the concentration at which the activity in the assay is half-maximal. Regarding `COc1cccc(N(C(=O)c2nc3nccc(C)n3n2)c2nc3ccccc3s2)c1`, the 50% effective concentration (EC50) in experiment [3] was 0.192 µM (active); in [5] it was 0.338 µM (active); in experiment [6] it was 0.248 µM (active); in experiment [7], 0.464 µM (active); in [8] it was 0.166 µM (active); in experiment [9], 0.122 µM (active). In addition, the AC50 in [4] was 43.5 µM (active).

As usually defined, the IC50 is the concentration at which inhibition is half-maximal. As to `CN(C)S(=O)(=O)c1cccc(NC(=O)COC(=O)c2cc(-c3cccc(Br)c3)nc3ccccc23)c1`, the EC50 in experiment [10] is reported as 21.1 µM (not active); in [11] it was 19.1 µM (not active); in experiment [12], 18.1 µM (not active). Also, in [13], the IC50 is > 94.1 µM (inactive).

For the molecule `COc1ccc2c(COC(=O)c3[nH]nc4ccccc34)cc(=O)oc2c1`, the concentration for a half-maximal effect (EC50) is < 0.1 µM (inconclusive) in experiment [3]; 0.684 µM (active) in experiment [5]; 0.752 µM (active) in experiment [6]; 0.352 µM (active) in [7]; 0.409 µM (active) in experiment [8].

As to `Cc1nnc(SCC(=O)NC2CCCC2)s1`, the EC50 in experiment [1] and in experiment [2] was > 55.7 µM (not active) throughout.

As to `Cc1ccc(OCc2nnc(SCC(=O)c3ccccc3)n2Cc2ccco2)cc1`, the EC50 in [14] and in [15] was > 20 µM (not active) in each case.

In the case of `CC1=CC(=Cc2sc3ccccc3[n+]2C)C=C(C)O1.[O-][Cl+3]([O-])([O-])[O-]`, the IC50 in experiment [16] is 8.76 µM (active). For the same molecule, the EC50 was < 0.1 µM (active) in experiment [17]; 32.3 µM (active) in experiment [18]; 0.491 µM (active) in experiment [19]; > 160 µM (inactive) in [21]; 0.009 µM (active) in [22]. Besides, the half-maximal activity concentration (AC50) in [20] was 5.78 µM (active).

As for `COc1ccccc1C(=O)C1CCCN(C(=O)CSc2ccccn2)C1` (configuration not stated), the EC50 in experiment [10], in [11] and in experiment [12] was > 79.4 µM (not active) in each case.

Take `O=C(O)c1cc(O)c2c(c1)C(=O)c1cccc(O)c1C2=O` [RHEIN]: the concentration for a half-maximal effect (EC50) in experiment [23] is 29.2 µM (active); in experiment [24], 21.6 µM (active); in experiment [14], 5.19 µM (active); in experiment [15], 19.8 µM (active). The AC50 in [25] is > 30 µM (inactive).

The values are drawn from ChEMBL document CHEMBL1201862, “PubChem BioAssay data set” (2004).
